Experimental data from the NIST ThermoML archive (doi:10.1021/je5005752).
± gives the expanded uncertainty stated by the source.

Assay: xn = mol fraction of the nth substance listed
Details: 101 kPa, Liquid; for viscosity: Falling or rolling sphere viscometry; for mass density: Vibrating tube method

SMILES: CCCC(=O)OCC [ethyl butanoate] + CCCO
- viscosity (308.15 K, x1 = 0.1001): 1.179 ± 0.025 mPa·s
- viscosity (308.15 K, x1 = 0.2): 0.959 ± 0.021 mPa·s
- viscosity (308.15 K, x1 = 0.2999): 0.8239 ± 0.018 mPa·s
- viscosity (308.15 K, x1 = 0.3994): 0.7391 ± 0.016 mPa·s
- viscosity (308.15 K, x1 = 0.4999): 0.6786 ± 0.015 mPa·s
- viscosity (308.15 K, x1 = 0.6002): 0.638 ± 0.014 mPa·s
- viscosity (308.15 K, x1 = 0.6998): 0.6089 ± 0.013 mPa·s
- viscosity (308.15 K, x1 = 0.8001): 0.5882 ± 0.013 mPa·s
- viscosity (308.15 K, x1 = 0.9001): 0.5756 ± 0.013 mPa·s
- viscosity (308.15 K, x1 = 1): 0.5736 ± 0.013 mPa·s
- mass density (308.15 K, x1 = 0.1001): 802.83 ± 0.21 kg/m3
- mass density (308.15 K, x1 = 0.2): 812.51 ± 0.21 kg/m3
- mass density (308.15 K, x1 = 0.2999): 821.1 ± 0.22 kg/m3
- mass density (308.15 K, x1 = 0.3994): 828.82 ± 0.22 kg/m3
- mass density (308.15 K, x1 = 0.4999): 835.83 ± 0.23 kg/m3
- mass density (308.15 K, x1 = 0.6002): 842.27 ± 0.23 kg/m3
- mass density (308.15 K, x1 = 0.6998): 848.03 ± 0.24 kg/m3
- mass density (308.15 K, x1 = 0.8001): 853.36 ± 0.25 kg/m3
- mass density (308.15 K, x1 = 0.9001): 858.26 ± 0.26 kg/m3
- mass density (308.15 K, x1 = 1): 863.02 ± 0.27 kg/m3
- viscosity (313.15 K, x1 = 0.1001): 1.073 ± 0.023 mPa·s
- viscosity (313.15 K, x1 = 0.2): 0.8796 ± 0.019 mPa·s
- viscosity (313.15 K, x1 = 0.2999): 0.7599 ± 0.016 mPa·s
- viscosity (313.15 K, x1 = 0.3994): 0.6873 ± 0.015 mPa·s
- viscosity (313.15 K, x1 = 0.4999): 0.6338 ± 0.014 mPa·s
- viscosity (313.15 K, x1 = 0.6002): 0.598 ± 0.013 mPa·s
- viscosity (313.15 K, x1 = 0.6998): 0.5722 ± 0.012 mPa·s
- viscosity (313.15 K, x1 = 0.8001): 0.5543 ± 0.012 mPa·s
- viscosity (313.15 K, x1 = 0.9001): 0.544 ± 0.012 mPa·s
- viscosity (313.15 K, x1 = 1): 0.5424 ± 0.012 mPa·s
- mass density (313.15 K, x1 = 0.1001): 798.47 ± 0.21 kg/m3
- mass density (313.15 K, x1 = 0.2): 807.94 ± 0.21 kg/m3
- mass density (313.15 K, x1 = 0.2999): 816.35 ± 0.22 kg/m3
- mass density (313.15 K, x1 = 0.3994): 823.93 ± 0.22 kg/m3
- mass density (313.15 K, x1 = 0.4999): 830.81 ± 0.23 kg/m3
- mass density (313.15 K, x1 = 0.6002): 837.16 ± 0.23 kg/m3
- mass density (313.15 K, x1 = 0.6998): 842.84 ± 0.24 kg/m3
- mass density (313.15 K, x1 = 0.8001): 848.11 ± 0.25 kg/m3
- mass density (313.15 K, x1 = 0.9001): 852.96 ± 0.26 kg/m3
- mass density (313.15 K, x1 = 1): 857.7 ± 0.27 kg/m3
- viscosity (318.15 K, x1 = 0.1001): 0.9782 ± 0.021 mPa·s
- viscosity (318.15 K, x1 = 0.2): 0.8084 ± 0.017 mPa·s
- viscosity (318.15 K, x1 = 0.2999): 0.7044 ± 0.015 mPa·s
- viscosity (318.15 K, x1 = 0.3994): 0.6398 ± 0.014 mPa·s
- viscosity (318.15 K, x1 = 0.4999): 0.5926 ± 0.013 mPa·s
- viscosity (318.15 K, x1 = 0.6002): 0.5612 ± 0.012 mPa·s
- viscosity (318.15 K, x1 = 0.6998): 0.5398 ± 0.012 mPa·s
- viscosity (318.15 K, x1 = 0.8001): 0.5227 ± 0.011 mPa·s
- viscosity (318.15 K, x1 = 0.9001): 0.5138 ± 0.011 mPa·s
- viscosity (318.15 K, x1 = 1): 0.5132 ± 0.011 mPa·s
- mass density (318.15 K, x1 = 0.1001): 794.06 ± 0.21 kg/m3
- mass density (318.15 K, x1 = 0.2): 803.33 ± 0.21 kg/m3
- mass density (318.15 K, x1 = 0.2999): 811.58 ± 0.22 kg/m3
- mass density (318.15 K, x1 = 0.3994): 819 ± 0.22 kg/m3
- mass density (318.15 K, x1 = 0.4999): 825.77 ± 0.23 kg/m3
- mass density (318.15 K, x1 = 0.6002): 832 ± 0.23 kg/m3
- mass density (318.15 K, x1 = 0.6998): 837.62 ± 0.24 kg/m3
- mass density (318.15 K, x1 = 0.8001): 842.82 ± 0.25 kg/m3
- mass density (318.15 K, x1 = 0.9001): 847.64 ± 0.26 kg/m3
- mass density (318.15 K, x1 = 1): 852.36 ± 0.27 kg/m3
- viscosity (323.15 K, x1 = 0.1001): 0.9018 ± 0.019 mPa·s
- viscosity (323.15 K, x1 = 0.2): 0.7475 ± 0.016 mPa·s
- viscosity (323.15 K, x1 = 0.2999): 0.6572 ± 0.014 mPa·s
- viscosity (323.15 K, x1 = 0.3994): 0.601 ± 0.013 mPa·s
- viscosity (323.15 K, x1 = 0.4999): 0.5568 ± 0.012 mPa·s
- viscosity (323.15 K, x1 = 0.6002): 0.5301 ± 0.011 mPa·s
- viscosity (323.15 K, x1 = 0.6998): 0.5106 ± 0.011 mPa·s
- viscosity (323.15 K, x1 = 0.8001): 0.4955 ± 0.011 mPa·s
- viscosity (323.15 K, x1 = 0.9001): 0.488 ± 0.011 mPa·s
- viscosity (323.15 K, x1 = 1): 0.487 ± 0.011 mPa·s
- mass density (323.15 K, x1 = 0.1001): 789.62 ± 0.21 kg/m3
- mass density (323.15 K, x1 = 0.2): 798.67 ± 0.22 kg/m3
- mass density (323.15 K, x1 = 0.2999): 806.74 ± 0.22 kg/m3
- mass density (323.15 K, x1 = 0.3994): 814.03 ± 0.22 kg/m3
- mass density (323.15 K, x1 = 0.4999): 820.68 ± 0.23 kg/m3
- mass density (323.15 K, x1 = 0.6002): 826.83 ± 0.23 kg/m3
- mass density (323.15 K, x1 = 0.6998): 832.37 ± 0.24 kg/m3
- mass density (323.15 K, x1 = 0.8001): 837.52 ± 0.25 kg/m3
- mass density (323.15 K, x1 = 0.9001): 842.3 ± 0.26 kg/m3
- mass density (323.15 K, x1 = 1): 847 ± 0.27 kg/m3
